“Also recorded” adds a separate entry of the source. Where two headings read alike, the source gives them in different places. Where no end group is shown, it is not given here. [ ]: non-standard residue; d: D form.
Assays:
CCR5 [1] = target: CCR5 (Homo sapiens, UniProt P51681); conditions: 30 min pretreatment, CCL4 50 ng/mL for 90 min, FIG. 2, cited from earlier work
[2] = target: insulin-like growth factor 1 receptor (IGF-1R) (Homo sapiens, UniProt P08069)
Procedure: (§1) To determine whether all-D-TTNYT (SEQ ID NO:1) blocks maturation of antigen-presenting dendritic cells, human PBMC's were isolated from peripheral blood by Ficoll-Paque centrifugation and then monocytes were isolated by negative selection using immunobeads (Miltenyi). Human monocyte derived immature dendritic cells (iDCs) were then generated by treating monocytes with GM-CSF/IL4.
The iDCs were treated with all-D-TTNYT (SEQ ID NO:1), generic name RAP103 (12), at 10-12 M for 30 min. […]

CCR2 [3] = target: T1, CCR2 (Homo sapiens, UniProt P41597); conditions: 30 min pretreatment, CCL2 50 ng/mL for 90 min, FIG. 2, cited from earlier work
T1 sequence (P41597 1-360 isoform P41597-2): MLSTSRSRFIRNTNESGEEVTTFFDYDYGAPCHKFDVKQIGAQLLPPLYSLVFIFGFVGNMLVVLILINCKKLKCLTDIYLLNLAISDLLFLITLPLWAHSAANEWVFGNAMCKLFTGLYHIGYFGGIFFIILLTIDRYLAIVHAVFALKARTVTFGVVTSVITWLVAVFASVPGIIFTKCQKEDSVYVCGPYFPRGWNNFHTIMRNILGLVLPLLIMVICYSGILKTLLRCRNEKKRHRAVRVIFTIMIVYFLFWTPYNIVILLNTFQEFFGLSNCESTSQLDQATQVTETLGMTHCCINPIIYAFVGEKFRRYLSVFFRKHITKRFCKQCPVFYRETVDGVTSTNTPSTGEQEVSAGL

MIP-1α (CCL3) = conditions: Rat, nerve injured, oral gavage 0.05-1 mg/kg for 7 days, M1
Excerpt: (§2) The specific experimental details are provided in Padi, 2012 (12).

CCR5 [4] = conditions: Rat, nerve injured, oral gavage 0.05-1 mg/kg for 7 days, M1
Excerpt: as §2

MCP-1 (CCL2) = conditions: Rat, nerve injured, oral gavage 0.05-1 mg/kg for 7 days, M1
Excerpt: as §2

CCR2 [5] = conditions: Rat, nerve injured, oral gavage 0.05-1 mg/kg for 7 days, M1
Excerpt: as §2

IL-1β = conditions: Rat, nerve injured, oral gavage 0.05-1 mg/kg for 7 days, M1
Excerpt: as §2

TNFα [6] = conditions: Rat, nerve injured, oral gavage 0.05-1 mg/kg for 7 days, M1
Excerpt: as §2

IL-6 [7] = conditions: Rat, nerve injured; oral gavage 0.05-1 mg/kg for 7 days; M1
Excerpt: as §2

TLR4/MyD88 [8] = conditions: iDCs, peptide 10-12 M for 30 min, then LPS 100 ng/ml, 48 hrs
Procedure: as §1
The iDCs were treated with all-D-TTNYT (SEQ ID NO:1), generic name RAP103 (12), at 10-12 M for 30 min. After 30 min LPS (100 ng/ml) was added to the cells and cells were analyzed after 48 hrs. for surface maturation markers using fluorescent labeled antibodies by flow cytometry.

STAT3 = conditions: Hu; phenotype M1; cited from earlier work
TLR4/MyD88 [9] = conditions: Rat; phenotype M1; cited from earlier work
IL-6 [10] = conditions: Hu; phenotype M1; cited from earlier work
NFkB = conditions: Hu; phenotype M1; cited from earlier work
CCL5 = conditions: mouse synaptosomes; cited from earlier work
[11] = humans, neuro-AIDS; cited from earlier work
TNFα [12] = conditions: Hu; phenotype M1; cited from earlier work
IL-4 = conditions: Hu; phenotype M2; cited from earlier work
IL-13 = conditions: Hu; phenotype M2; cited from earlier work
IL-8 = conditions: Hu; phenotype M1; cited from earlier work
IL-23 = conditions: Hu; phenotype M1; cited from earlier work
IL-1 = conditions: Hu; phenotype M1; cited from earlier work
activated microglia = test: Pre-clinical animal models: neuron loss with aging, activated microglial neurotoxicity; format: in vivo
Excerpt: In humans DAPTA improved cognition, speed of information processing and functional brain imaging in neuro-AIDS (24, 25). Therefore, it is believed that the compounds according to the present invention have a strong potential to improve cognitive deficits in the indicated conditions due to shared neurodegenerative inflammatory mechanisms.

IL-10 = conditions: Hu; phenotype M2; cited from earlier work
ICAM-1 = conditions: Hu; phenotype M1; cited from earlier work
CCR2 [13] = target: T1, CCR2; test: CCL2 (MCP-1) elicited chemotaxis of human monocytes; format: cell-based; parameters: endogenous in cells; host or cells: human monocytes; conditions: FIG. 3; methods similar to FIG. 2; low concentration
Procedure: Monocytes were treated with the indicated doses of RAP-103 for 30 min before chemotaxis against human CCL2 (MCP-1) or CCL4 (MIP-1β) (both 50 ng/mL) for 90 min. Data (chemotactic index) are presented as mean ±SEM. The chemotactic index for MCP-1 without RAP-103 was 2.5-3.5 times over control, whereas for MIP-1 ? without RAP-103, it was approximately 2 times over control. Data are presented as mean ±SEM. (*P<0.05, **P<0.01 vs RAP-103 untreated). Data are from (12), FIG. 1. […] Dual-chemokine CCR2/CCR5 receptor antagonists may have added therapeutic value by blocking multiple inflammatory pathways.
The methods employed are similar to those in FIG. 2.

[14] = target: CCR5 receptor on human monocytes (human) (UniProt P51681); test: cell-based or functional assay
[15] = target: CCR2 receptor on human monocytes (human) (UniProt P41597); test: cell-based or functional assay
response to bradykinin = conditions: amounts up to 50,000 times the standard challenge of bradykinin; cited from earlier work
[16] = listed as all-D-pentapeptide TTNYT

CCR5 (Homo sapiens, UniProt P51681), sequence (P51681 whole entry): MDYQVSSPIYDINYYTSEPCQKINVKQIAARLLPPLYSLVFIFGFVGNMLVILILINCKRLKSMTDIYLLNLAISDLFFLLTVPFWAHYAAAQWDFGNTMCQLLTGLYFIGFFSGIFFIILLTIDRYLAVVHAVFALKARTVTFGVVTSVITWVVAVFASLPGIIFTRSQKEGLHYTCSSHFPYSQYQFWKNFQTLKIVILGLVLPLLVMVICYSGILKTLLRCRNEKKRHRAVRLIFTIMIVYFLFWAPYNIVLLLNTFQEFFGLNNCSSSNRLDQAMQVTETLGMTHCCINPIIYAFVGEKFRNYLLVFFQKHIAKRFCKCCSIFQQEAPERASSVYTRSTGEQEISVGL
insulin-like growth factor 1 receptor (IGF-1R), sequence (P08069 31-736 limits assumed): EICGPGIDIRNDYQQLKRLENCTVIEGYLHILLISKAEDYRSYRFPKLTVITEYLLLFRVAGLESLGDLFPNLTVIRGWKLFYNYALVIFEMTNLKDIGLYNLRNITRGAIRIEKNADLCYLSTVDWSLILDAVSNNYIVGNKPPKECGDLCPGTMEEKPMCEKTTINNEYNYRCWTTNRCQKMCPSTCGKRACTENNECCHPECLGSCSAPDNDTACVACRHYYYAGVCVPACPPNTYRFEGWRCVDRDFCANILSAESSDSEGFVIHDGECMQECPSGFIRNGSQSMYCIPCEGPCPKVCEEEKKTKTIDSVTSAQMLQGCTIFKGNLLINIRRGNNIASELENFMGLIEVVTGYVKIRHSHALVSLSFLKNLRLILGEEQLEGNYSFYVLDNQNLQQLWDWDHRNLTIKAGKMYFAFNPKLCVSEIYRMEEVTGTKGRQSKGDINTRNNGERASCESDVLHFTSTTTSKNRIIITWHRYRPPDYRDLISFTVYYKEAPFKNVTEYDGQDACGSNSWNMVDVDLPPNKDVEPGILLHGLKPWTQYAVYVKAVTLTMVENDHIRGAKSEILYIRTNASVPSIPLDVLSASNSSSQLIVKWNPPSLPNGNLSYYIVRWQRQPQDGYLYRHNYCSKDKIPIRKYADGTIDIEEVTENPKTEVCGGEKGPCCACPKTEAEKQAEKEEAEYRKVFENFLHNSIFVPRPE

all-D-TTNYT
MIP-1β (CCL4)-elicited chemotaxis of human monocytes (CCR5 [1]): potently blocking
MIP-1β (CCL4)-elicited chemotaxis of human monocytes (CCR5 [1]; listed as RAP-103): dual-antagonist
DC maturation of these four markers caused by LL37 [2]: no effect
MCP-1 (CCL2)-elicited chemotaxis of human monocytes (CCR2 [3]): potently blocking
MCP-1 (CCL2)-elicited chemotaxis of human monocytes (CCR2 [3]; listed as RAP-103): dual-antagonist
MIP-1α (CCL3) Change (MIP-1α (CCL3)): decrease
MIP-1α (CCL3) Change (MIP-1α (CCL3); [16]): lowering
CCR5 Change (CCR5 [4]): decrease
CCR5 Change (CCR5 [4]; [16]): lowering
MCP-1 (CCL2) Change (MCP-1 (CCL2)): decrease
MCP-1 (CCL2) Change (MCP-1 (CCL2); [16]): lowering
CCR2 Change (CCR2 [5]): decrease
CCR2 Change (CCR2 [5]; [16]): lowering
IL-1β Change (IL-1β): decrease
IL-1β Change (IL-1β; [16]): lowering
TNFα Change (TNFα [6]): decrease
TNFα Change (TNFα [6]; [16]): lowering
IL-6 Change (IL-6 [7]): decrease
CD58 (adhesion molecule) expression (TLR4/MyD88 [8]): reduced
CD86 expression (TLR4/MyD88 [8]): reduced
HLA-DR expression (TLR4/MyD88 [8]): reduced
ICAM1 (adhesion molecule) expression (TLR4/MyD88 [8]): reduced
TLR4-mediated maturation of antigen presenting dendritic cells (TLR4/MyD88 [8]): blocks

Dala1-peptide T-amide [DAPTA]
STAT3 Change (STAT3): decrease
TLR4/MyD88 Change (TLR4/MyD88 [9]): decrease
IL-6 Change (IL-6 [10]): reduced; also recorded: decrease
NFkB Change (NFkB): decrease
CCL5 facilitated release of aspartate (CCL5): blocked
cognition [11]: improved
functional brain imaging [11]: improved
speed of information processing [11]: improved
TNFα Change (TNFα [12]): reduced; also recorded: decrease
IL-4 Change (IL-4): elevated; also recorded: increase
IL-13 Change (IL-13): elevated; also recorded: increase
IL-8 Change (IL-8): reduced; also recorded: decrease
IL-23 Change (IL-23): decrease
IL-1 Change (IL-1): reduced; also recorded: decrease
activated microglial mediated neurotoxicity and release of cytokines and chemokines (activated microglia): blocked
loss of neurons with aging (activated microglia): prevented
IL-10 Change (IL-10): elevated; also recorded: increase
ICAM-1 Change (ICAM-1): decrease

all-D-TTSYT: all-D-version of DAPTA related pentapeptide TTSYT ([dT][dT][dS][dY][dT])
CCL2 (MCP-1) human monocyte chemotaxis (CCR2 [13]): antagonists

all-D-NTSYR: all-D-version of DAPTA related pentapeptide NTSYR ([dN][dT][dS][dY][dR])
CCL2 (MCP-1) human monocyte chemotaxis (CCR2 [13]): antagonists

all-D-SSTYR: all-D-version of DAPTA related pentapeptide SSTYR ([dS][dS][dT][dY][dR])
CCL2 (MCP-1) human monocyte chemotaxis (CCR2 [13]): antagonists

CCL4 (MIP-1β) (from UniProt P13236 24-92) (ligand)
chemotactic index of human monocytes, without RAP-103 (times over control) [14]: 2

human CCL2 (MCP-1) (from UniProt P13500 24-99) (ligand)
chemotactic index of human monocytes, without RAP-103 (times over control) [15]: 2.5 to 3.5

all-D-bradykinin
inhibition of the response to bradykinin or bradykinin-like effect (response to bradykinin): neither any inhibition of the response to bradykinin, or any bradykinin-like effect
